US10695406B2, “Modulation of cellular stress using a B-cell oxidative and/or endoplasmic reticulum stress inhibitor and a targeting agent” (THE UNIVERSITY OF QUEENSLAND, priority 2014, dated 2020)

Tests used:
murine islets = assay: Murine islets ex vivo: ER stress, gene expression, insulin and proinsulin secretion; assay type: cell-based, mice
Procedure: Healthy islets were cultured with 10 μg/mL tunicamycin or 5 μM thapsigargin±IL-22 for 6 hours. Alternatively the islets were cultured in the presence of ER stress-inducing cytokines±IL-22 for 24 hours. The cultures were then cultured consecutively for 30 minutes in 2.8 mM glucose, 20 mM glucose, or a combination of 20 mM glucose and 100 nM GLP-1.
All mice were housed in sterilized, filter-topped cages in a conventional clean facility. Six to eight week old C57BL/6 male mice were fed ad libitum on a high fat diet containing 46% of available energy as saturated fat, 34% carbohydrate, 20% protein (Speciality feeds, SF04-027). Or on normal chow containing less than 10% saturated fat (GOLDMIX, 126575). Cages of mice were randomly allocated to the experimental groups by random draw. Investigators were not blinded to treatment by there were no subjective assessments made.
Total insulin and proinsulin were measured in supernatant from islet cultures or in serum from mice using commercially obtained ELISA kits from MILLIPORE and MERCODIA, respectively. The molar insulin concentration was determined by subtracting the molar proinsulin concentration from molar total insulin, and then the serum proinsulin:insulin ratio was calculated.

[1] = tested on: pneumovirus of mice (PVM); assay: Pneumovirus (PVM) infection of neonatal mice with IL-22 administration; assay type: in vivo, C57BL/6 mice
Procedure: Total RNA was extracted from animal tissues by homogenizing in TRIzol and separated via chloroform phase separation. RNA was purified using High Pure RNA isolation kit (ROCHE) as per the manufacturer's instructions, including DNASE treatment. Extraction purity was assessed by NANODROP, ensuring the expected A260/280 value for RNA between 1.8 and 2.0. Reverse transcription was performed on 1 μg of RNA using 5×ISCRIPT reaction mix and ISCRIPT reverse transcriptase (BIORAD). Quantitative, reverse transcription polymerase chain reaction (qRT-PCR) was performed to quantify expression of PVM gene Src homology (SH), using specific exon-spanning primer sequences and amplified with SYBR Premix Ex TAQ II polymerase (TAKARA). All gene expression was quantified in duplicate using a Viia 7 Real Time PCR System (APPLIED BIOSYSTEMS) and relative fold changes were calculated using the 2^−ΔΔCt method, comparing to the mean of naïve uninfected mice after normalizing to the β-actin housekeeping gene ACTB.
Five-day old neonatal C57BL/6 mice were administered intraperitoneal (i.p.) injections of either recombinant mouse IL-22 (rmIL-22) (20 ng/g every three days) [R&D Systems, #582-ML/CF], or an irrelevant IgG1 mock treatment control (12.5 μg/mouse, weekly) [Lilly Pharmaceuticals, LSN2404993]. […]
Paraffin embedded left lobes were sectioned onto Superfrost plus slides. […] This scoring system assessed inflammation in the small airspaces, peribronchiolar interstitial, alveolar interstitial and injury in the airway epithelium. The degree of lung injury and inflammation was scored blindly.
Cells infected by PVM were visualized by immunohistochemistry using rabbit anti-mouse PVM antibody (polyclonal at 1:8000) (ALPHA DIAGNOSTIC, PVMNP14-S). […] PVM infection was quantified by counting number of infected cells in 4-5 bronchioles per mouse and expressed as the number of infected cells per length of bronchiole epithelium. All sections were visualized on a VS120-L100 slide scanner microscope (OLYMPUS) and analyzed using OlyVIA v2.4 (OLYMPUS) and IMAGEJ v1.45s.

human pancreatic islets = assay: Oxidative stress (ROS, NO) in cultured human pancreatic islets; assay type: cell-based; settings: 50 ng/mL, 30 min prior exposure, 2 hours culture
Procedure: Human islets were recovered from organ donors and placed into overnight culture in DMEM with 2.8 mM glucose and 10% FCS. Islets were then washed and transferred into serum free DMEM for 6 h prior to experiments to assess induction of oxidative stress. Islets were then cultured for 2-24 hours in the presence of 50 ng/mL of IFNγ, IL-1β, IL-23 or IL-24, or the free fatty acid palmitate at 0.5 mM, with or without exposure to 50 ng/mL IL-22 beginning 30 min prior to the introduction of the stress inducing cytokines or lipids. To test whether endogenous IL-22 affects human islet physiology the islets were treated for 2-24 hours with an anti-IL-22R1 (receptor) antibody at 10 μg/mL. ROS and nitrite were measured using the DCFDA and Greiss assays as described above for murine islets, and quantitative RT-PCR used to assess gene expression.

[2] = healthy islets, co-treatment with ER stress agents

**Q.** For “IL-22: interleukin-22; recombinant murine IL-22 (R&D SYSTEMS) in the mouse experiments”, which “MIP2α mRNA” value (murine islets; HFDIO islets cultured 24 h in 2.8 mM glucose ± 50 ng/mL IL-22) is on record?
**A.** reduced substantially

**Q.** And the “acute islet ER stress (Xbp1-splicing, Hspa5 mRNA)” value (murine islets; [2])?
**A.** suppresses the acute islet oxidative stress-driven ER stress

**Q.** What about the “glucose and glucose plus GLP-1 stimulated insulin secretion” value (murine islets; [2]) of the same substance?
**A.** restores appropriate glucose and glucose plus GLP-1 stimulated insulin secretion

**Q.** And the proinsulin secretion (murine islets; islets from HFDIO mice)?
**A.** proinsulin secretion ceased

**Q.** And the “insulin hyper-secretion (GSIS)” value (murine islets; islets from HFDIO mice, after culture)?
**A.** returned to levels in non-obese islets

**Q.** What about the “ER stress, antioxidant gene expression and Nos2” value (murine islets; islets from HFDIO mice, culture 24 hours) of the same substance?
**A.** reduced ER stress, increased antioxidant gene expression and decreased Nos2

**Q.** And the “mice that died between days 5 and 6 post infection” value ([1]; 20 ng/g i.p. every three days, 100 PFU PVM)?
**A.** 7/9

**Q.** What about the “increase of PVM gene expression (PCR)” value ([1]; 5 days post infection) of the same substance?
**A.** 2.2 fold

**Q.** What about the “lung injury score, times higher” value ([1]; 5 days post infection) of the same substance?
**A.** 1.7 times

**Q.** What about the “production of ROS and NO induced by IFN-γ, IL-1β, IL-23, IL-24 and palmitate” value (human pancreatic islets) of the same substance?
**A.** protected human islets from the production of ROS and NO
